Like-named read-outs stand apart in the source and are kept apart here.

Common to all, as to type: biochemical, male Wistar rats
The target in test [1] is T1, dopamine transporter/uptake site (3H-DA uptake, striatal synaptosomes) (Rattus norvegicus, UniProt P23977).
T1 construct: Corpi striati from male Wistar rats (150-200 g) are homogenised; from tissue; host or cells: rat corpus striatum, P2 synaptosomal pellet
The test can be described thus: In vitro inhibition of 3H-dopamine (3H-DA) uptake in striatal synaptosomes. An excerpt: (§1) The compounds of the invention have been tested for their ability to inhibit reuptake of dopamine(DA) noradrenaline(NA) and serotonine(5-HT) in synaptosomes.
(§2) Specific neurotransmitter transporters/uptake sites on nerve terminals presumably function to terminate neuronal signalling by removing the neurotransmitters dopamine, noradrenaline and serotonine, respectively, from the synaptic cleft. The activity of the transporter integral proteins can be measured in vitro by synaptosomal uptake of ^3H-dopamine, ^3H-noradrenaline and ^3H-serotonine, respectively.
In vitro Inhibition of ^3H-dopamine (^3H-DA) Uptake in Striatal Synaptosomes
(§3) Tissue preparations: Preparations are performed at 0-4° C. unless otherwise indicated. Corpi striati from male Wistar rats (150-200 g) are homogenised for 5-10 sec in 100 volumes of ice-cold 0.32M sucrose containing 1 mM pargyline using an Ultra-Turrax homogenizer. Monoamine oxidase activity will be inhibited in the presence of pargyline. The homogenate is centrifuged at 1000×g for 10 min. The resulting supernatant is then centrifuged at 27,000×g for 50 min and the supernatant is discarded. The pellet (P2) is resuspended in oxygenated (equilibrated with an atmosphere of 96% O2: 4% CO2 for at least 30 min) Krebs-Ringer incubation buffer (8000 ml per g of original tissue) at pH 7.2 containing 122 mM NaCl, 0.16 mM EDTA, 4.8 mM KCl, 12.7 mM Na2HPO4, 3.0 mM NaH2PO4, 1.2 mM MgSO4, 1 mM CaCl2, 10 mM glucose and 1 mM ascorbic acid.
(§4) Assay: Aliquots of 4.0 ml tissue suspension are added to 100 μl of test solution and 100 μl of ^3H-DA (1 nM, final concentration), mixed and incubated for 25 min at 37° C. Non-specific uptake is determined using benztropine (10 μM, final concentration). After incubation the samples are poured directly onto Whatman GF/C glass fibre filters under suction. The filters are then washed three times with 5 ml of ice-cold 0.9% (w/v) NaCl solution. The amount of radioactivity on the filters is determined by conventional liquid scintillation counting. Specific uptake is calculated as the difference between total uptake and non-specific uptake.
(§5) 25-75% inhibition of specific binding must be obtained, before calculation of an IC50.
The test value is given as IC50 (the concentration (μM) of the test substance which inhibits the specific binding of ^3H-DA by 50%).

Test [2] has as its target T2, serotonine transporter/uptake site (3H-5-HT uptake, cortical synaptosomes) (Rattus norvegicus, UniProt P31652).
T2 construct: Cerebral cortices from male Wistar rats (150-200 g) are homogenised; from tissue; host or cells: rat cerebral cortex, P2 synaptosomal pellet
The experiment in a line: In vitro inhibition of 3H-5-hydroxytryptamine (3H-5-HT, serotonine) uptake in cortical synaptosomes. The following applies: for IC50: cortical synaptosomes; for greater potency as inhibitors of serotonine uptake than of either noradrenaline or dopamine uptake: selectivity, 5-HT uptake vs NA or DA uptake, in vitro.
Description: as §1, §2
In vitro Inhibition of ^3H-5-hydroxytryptamine (^3H-5-HT, Serotonine) Uptake in Cortical Synaptosomes
as §3, with “Preparation:” for “preparations:”, “Cerebral cortices” for “Corpi striati”, “(1000” for “(8000”
as §4, with “^3H-5-HT” for “^3H-DA”, “30” for “25”, “citalopram (1” for “benztropine (10”
as §5
The test value is given as IC50 (the concentration (μM) of the test substance which inhibits the specific binding of ^3H-5-HT by 50%).

The target of test [3] is noradrenaline transporter/uptake site (3H-NA uptake, hippocampal synaptosomes) (Rattus norvegicus, UniProt Q9WTR4). The test can be described thus: In vitro inhibition of 3H-noradrenaline (3H-NA) uptake in hippocampal synaptosomes.
Description: as §1, §2
In vitro Inhibition of ^3H-noradrenaline (^3H-NA) Uptake in Hippocampal Synaptosomes
as §3, with “Tissue preparation:” for “Tissue preparations:”, “indicated. Hippocampi” for “indicated. Corpi striati”, “buffer (2000” for “buffer (8000”, “per […]” for “per g”, “MgSO4, 0.97” for “MgSO4, 1”
as §4, with “^3H-NA” for “^3H-DA”, “90” for “25”, “desipramine (1” for “benztropine (10”
as §5
The test value is given as IC50 (the concentration (μM) of the test substance which inhibits the specific binding of ^3H-NA by 50%).

The mark [4] stands for this setting: DA-uptake IC50, Table 1, 3H-DA 1 nM, 25 min at 37° C.
Setting [5] is: 5-HT-uptake IC50, Table 1, 3H-5-HT 1 nM, 30 min at 37° C.
The mark [6] stands for this setting: read-out: NA-uptake IC50, Table 1, 3H-NA 1 nM, 90 min at 37° C.
Where [7] appears, read: DA-uptake IC50, Table 2, value ± spread.
Setting [8] is: 5-HT-uptake IC50, Table 2, value ± spread.
Where [9] appears, read: read-out: NA-uptake IC50, Table 2, value ± spread.

T2 sequence (P31652 whole entry): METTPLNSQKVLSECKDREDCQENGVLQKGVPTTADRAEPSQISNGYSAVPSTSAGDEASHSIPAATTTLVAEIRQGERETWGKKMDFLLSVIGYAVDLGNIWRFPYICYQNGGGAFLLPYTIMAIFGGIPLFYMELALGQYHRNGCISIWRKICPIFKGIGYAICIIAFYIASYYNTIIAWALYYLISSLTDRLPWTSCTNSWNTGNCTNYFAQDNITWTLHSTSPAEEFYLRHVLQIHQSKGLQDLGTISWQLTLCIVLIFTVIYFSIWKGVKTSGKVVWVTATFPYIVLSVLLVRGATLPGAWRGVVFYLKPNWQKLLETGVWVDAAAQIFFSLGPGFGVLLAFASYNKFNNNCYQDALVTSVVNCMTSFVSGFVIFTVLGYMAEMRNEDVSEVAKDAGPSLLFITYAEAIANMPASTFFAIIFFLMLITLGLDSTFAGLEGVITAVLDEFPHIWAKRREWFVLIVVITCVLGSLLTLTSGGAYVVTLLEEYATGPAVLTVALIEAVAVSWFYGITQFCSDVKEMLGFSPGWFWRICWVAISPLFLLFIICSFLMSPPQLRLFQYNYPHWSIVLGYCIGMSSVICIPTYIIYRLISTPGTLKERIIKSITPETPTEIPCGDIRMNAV
T1 sequence (P23977 whole entry): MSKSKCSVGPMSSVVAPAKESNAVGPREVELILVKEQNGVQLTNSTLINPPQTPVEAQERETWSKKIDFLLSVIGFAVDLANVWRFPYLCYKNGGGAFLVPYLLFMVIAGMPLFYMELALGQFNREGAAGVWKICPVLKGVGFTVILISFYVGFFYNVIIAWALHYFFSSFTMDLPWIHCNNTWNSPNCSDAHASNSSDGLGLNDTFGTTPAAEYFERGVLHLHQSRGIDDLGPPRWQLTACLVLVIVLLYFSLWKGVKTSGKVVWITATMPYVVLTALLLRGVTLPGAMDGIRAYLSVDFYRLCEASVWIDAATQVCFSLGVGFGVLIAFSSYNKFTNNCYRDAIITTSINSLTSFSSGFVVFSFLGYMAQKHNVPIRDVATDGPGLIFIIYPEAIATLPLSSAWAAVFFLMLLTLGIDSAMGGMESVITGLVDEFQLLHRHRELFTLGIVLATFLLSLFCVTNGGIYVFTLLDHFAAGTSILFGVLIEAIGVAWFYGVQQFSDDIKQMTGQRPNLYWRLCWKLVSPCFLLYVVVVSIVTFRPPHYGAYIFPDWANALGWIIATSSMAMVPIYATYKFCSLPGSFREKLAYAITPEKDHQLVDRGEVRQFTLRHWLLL

As for `CN1C2C=C(c3ccc(C#N)cc3)CC1CC2` (racemic) [(±)-3-(4-cyanophenyl)-8-methyl-8-azabicyclo(3.2.1]oct-2-ene], the half-maximal inhibitory concentration (IC50) was 18000 nM in test [1] (setting [4]), 47 nM in test [2] (setting [5]) and 4900 nM in test [3] (setting [6]).

In the case of `CN1C2C=C(c3ccc([N+](=O)[O-])cc3)CC1CC2` (racemic) [(±)-3-(4-nitrophenyl)-8-methyl-8-azabicyclo[3.2.1]oct-2-ene], the values for the IC50 in test [1] (setting [4]), in test [2] (setting [5]) and in test [3] (setting [6]) were 1500 nM, 16 nM and 500 nM, respectively.

For `FC(F)(F)Oc1ccc(C2=CC3CCC(C2)N3)cc1` (racemic) [(±)-3-(4-trifluoromethoxyphenyl)-8-azabicyclo[3.2.1]oct-2-ene (racemate), (±)-3-(4-trifluoromethoxyphenyl)-8-azabicyclo[3.2.1]oct-2-ene], the IC50 worked out at 18700 ± 3500 nM in test [1] (setting [7]), 4.8 ± 0.6 nM in test [2] (setting [8]) and 15600 ± 3500 nM in test [3] (setting [9]). The “greater potency as inhibitors of serotonine uptake than of either noradrenaline or dopamine uptake” value in test [2] was found to be 3000 fold.

With `CN1C2C=C(c3ccc(OC(F)(F)F)cc3)CC1CC2` (racemic) [(±)-3-(4-trifluoromethoxyphenyl)-8-methyl-8-azabicyclo[3.2.1]oct-2-ene], the half-inhibitory concentration (IC50) in test [1] (setting [4]) is 22000 nM; in test [1] (setting [7]) it was 21300 ± 1200 nM; in test [2] (setting [5]), 3.6 nM; in test [2] (setting [8]), 3.5 ± 0.3 nM; in test [3] (setting [6]), 8000 nM; in test [3] (setting [9]), 12000 ± 2300 nM. The “greater potency as inhibitors of serotonine uptake than of either noradrenaline or dopamine uptake” value in test [2] came out at 3000 fold.

On to `FC(F)(F)Oc1ccc(C2=CC3CCC(C2)N3)cc1` (single isomer, unassigned) [3-(4-trifluoromethoxyphenyl)-8-azabicyclo[3.2.1]oct-2-ene (enantiomer A*), 3-(4-trifluoromethoxyphenyl)-8-azabicyclo[3.2.1]oct-2-ene], for which it took 22 ± 12 nM to reach half-maximal inhibition in test [2] (setting [8]) (IC50).

As to `FC(F)(F)Oc1ccc(C2=CC3CCC(C2)N3)cc1` (single isomer, unassigned) [3-(4-trifluoromethoxyphenyl)-8-azabicyclo[3.2.1]oct-2-ene (enantiomer B*), 3-(4-trifluoromethoxyphenyl)-8-azabicyclo[3.2.1]oct-2-ene], in test [2] (setting [8]), inhibition was half-maximal at 12 ± 6 nM (IC50).

As a reminder, the IC50 is the concentration at which inhibition is half-maximal.

(Values after patent US6617459B2, “Azabicyclo derivatives and their use” (NeuroSearch A/S, priority 1999, dated 2003).)
